Data reported in patent publication US10213415B2, “Compounds as opioid receptor modulators” (JANSSEN PHARMACEUTICA NV, priority 2004, dated 2019).

Experiments:
delta opioid receptor = target: T1, delta opioid receptor (Rattus norvegicus, UniProt P33533); experiment: Rat Brain Delta Opioid Receptor Binding Assay ([3H]DPDPE); conditions: rat forebrain membranes, margin of error 10-20%, read-out: r Ki δ
T1 construct: from tissue; host or cells: forebrain of male Wistar rats
Protocol: (§1) Male, Wistar rats (150-250 g, VAF, Charles River, Kingston, N.Y.) are killed by cervical dislocation, and their brains removed and placed immediately in ice cold Tris HCl buffer (50 mM, pH 7.4). The forebrains are separated from the remainder of the brain by a coronal transection, beginning dorsally at the colliculi and passing ventrally through the midbrain-pontine junction. After dissection, the forebrains are homogenized in Tris buffer in a Teflon® glass homogenizer. The homogenate is diluted to a concentration of 1 g of forebrain tissue per 80 mL Tris and centrifuged at 39,000×g for 10 min. The pellet is resuspended in the same volume of Tris buffer containing 5 mM MgCl2 with several brief pulses from a Polytron homogenizer. This particulate preparation is used for the delta opioid binding assays. Following incubation with the delta selective peptide ligand ˜4 nM [^3H]DPDPE at 25° C. for 2.5 h in a 96-well plate with total volume of 1 mL, the plate contents are filtered through Wallac filtermat B sheets on a Tomtec 96-well harvester. The filters are rinsed three times with 2 mL of 10 mM HEPES (pH 7.4), and dried in a microwave oven 2 min twice. To each sample area 2×50 μL of Betaplate Scint scintillation fluid (LKB) is added and analyzed on a LKB (Wallac) 1205 BetaPlate liquid scintillation counter.
(§2) The data are used to calculate either the % inhibition compared to control binding (when only a single concentration of test compound is evaluated) or a Ki value (when a range of concentrations is tested). % inhibition is calculated as: [(total dpm−test compound dpm)/(total dpm−nonspecific dpm)]*100. Kd and Ki values were calculated using GraphPad PRISM data analysis program.

mu opioid receptor = target: T2, mu opioid receptor (Rattus norvegicus, UniProt P33535); experiment: Rat Brain Mu Opioid Receptor Binding Assay (and Version 2a, [3H]DAMGO); conditions: rat forebrain membranes, margin of error 10-20%, read-out: r Ki μ
T2 construct: from tissue; host or cells: forebrain of male Wistar rats
T2 sequence (P33535 whole entry): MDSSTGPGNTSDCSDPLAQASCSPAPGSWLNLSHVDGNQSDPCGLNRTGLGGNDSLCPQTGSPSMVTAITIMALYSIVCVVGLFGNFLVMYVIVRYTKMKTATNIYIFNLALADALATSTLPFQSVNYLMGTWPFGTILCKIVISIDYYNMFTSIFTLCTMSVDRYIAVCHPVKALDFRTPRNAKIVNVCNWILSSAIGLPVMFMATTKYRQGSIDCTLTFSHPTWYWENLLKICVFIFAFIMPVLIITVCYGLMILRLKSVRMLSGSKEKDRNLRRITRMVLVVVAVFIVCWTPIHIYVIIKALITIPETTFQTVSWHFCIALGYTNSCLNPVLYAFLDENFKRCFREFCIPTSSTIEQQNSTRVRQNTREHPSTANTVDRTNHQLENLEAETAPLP
Protocol: as §1, with “mu-opioid” for “delta opioid”, “Following incubation with the delta selective peptide ligand ˜4 nM [^3H]DPDPE at 25° C. for 2.5 h in a 96-well plate with total volume of 1 mL, the plate contents are filtered through Wallac filtermat B sheets on a Tomtec 96-well harvester.” left out, “(pH7.4),” for “(pH 7.4),”
as §2, with “dpm-test” for “dpm−test”, “dpm-nonspecific” for “dpm−nonspecific”
Male, Wistar rats (150-250 g, VAF, Charles River, Kingston, N.Y.) were killed by cervical dislocation, and their brains removed and placed immediately in ice-cold Tris HCl buffer (50 mM, pH 7.4). The forebrains were separated from the remainder of the brain by a coronal transection, beginning dorsally at the colliculi and passing ventrally through the midbrain-pontine junction. After dissection, the forebrains were homogenized in Tris buffer in a Teflon®-glass homogenizer. The homogenate was diluted to a concentration of 1 g of forebrain tissue per 80 mL Tris and centrifuged at 39,000×g for 10 min. The pellet was resuspended in the same volume of Tris buffer containing 5 mM MgCl2 with several brief pulses from a Polytron homogenizer. This particulate preparation was used for the mu opioid binding assay. Following incubation with 0.8 nM of the mu selective ligand [^3H]DAMGO at 25° C. for 2.5 h in a 96-well plate with total 1 mL, the plate contents were filtered through Wallac filtermat B sheets on a Tomtec 96-well harvester. The filters were rinsed three times with 2 mL of 10 mM HEPES (pH 7.4), and dried in a microwave oven. To each sample area, Betaplate Scint scintillation fluid (LKB) was added and the resulting radioactivity quantified on a LKB (Wallac) 1205 BetaPlate liquid scintillation counter. Kd and Ki values were calculated using the GraphPad PRISM data analysis program.

human mu opioid receptor = target: T3, human mu opioid receptor (Homo sapiens, UniProt P35372); experiment: Human Mu Opioid Receptor Binding Assay (CHO membranes, 3H-Damgo); conditions: read-out: hKi μ
T3 construct: purchased Perkin Elmer RBHOMM400UA; host or cells: Chinese Hamster Ovary cells (recombinant expression)
T3 sequence (P35372 whole entry): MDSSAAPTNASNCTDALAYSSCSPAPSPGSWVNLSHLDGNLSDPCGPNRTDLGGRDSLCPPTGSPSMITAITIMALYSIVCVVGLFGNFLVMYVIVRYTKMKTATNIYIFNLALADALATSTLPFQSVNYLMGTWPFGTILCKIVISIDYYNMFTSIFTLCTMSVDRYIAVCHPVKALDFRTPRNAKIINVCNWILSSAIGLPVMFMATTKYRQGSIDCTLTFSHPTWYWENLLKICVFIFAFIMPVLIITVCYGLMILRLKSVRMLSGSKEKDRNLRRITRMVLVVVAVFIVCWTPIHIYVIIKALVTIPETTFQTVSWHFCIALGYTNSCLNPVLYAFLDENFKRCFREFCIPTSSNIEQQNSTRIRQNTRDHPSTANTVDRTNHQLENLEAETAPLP
In short: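 Membranes from CHO cells expressing human mu opioid receptor, 300 μg/mL, in 50 mM Tris pH 7.5, 5 mM MgCl2. Incubated with compound and ³H-Damgo (3.6 nM before mixing) for 2 h at room temperature, filtered, counted by scintillation. Nonspecific binding with 1 μM unlabelled Damgo.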

[1] = target: T4, mu opioid receptor (CHO-hMOR cell membranes) (Homo sapiens, UniProt P35372); experiment: Mu Opioid Receptor Functional Assay: [35S]GTPγS Binding in CHO-hMOR Cell Membranes, Versions 1 and 2; format: biochemical; conditions: for MOR GTP binding assay_v1 (% I): version 1, % inhibition of agonist-stimulated GTPγS binding; for MOR GTP assay_v1 % of Basal: version 1, basal binding = 100%
T4 construct: purchased Receptor Biology, Inc. (Baltimore, Md.); host or cells: CHO cells (recombinant expression)
T4 sequence (P35372 whole entry): as above
Protocol: CHO-hMOR cell membranes were purchased from Receptor Biology, Inc. (Baltimore, Md.). About 10 mg/ml of membrane protein was suspended in 10 mM TRIS-HCl pH 7.2, 2 mM EDTA, 10% sucrose, and the suspension kept on ice. One ml of membranes was added to 15 ml cold binding assay buffer containing 50 mM HEPES, pH 7.6, 5 mM MgCl2, 100 mM NaCl, 1 mM DTT and 1 mM EDTA. The membrane suspension was homogenized with a Polytron and centrifuged at 3,000 rpm for 10 min. The supernatant was then centrifuged at 18,000 rpm for 20 min. The pellet was resuspended in 10 ml assay buffer with a Polytron.
The membranes were preincubated with wheat germ agglutinin coated SPA beads (Amersham) at 25° C. for 45 min in the assay buffer. The SPA bead (5 mg/ml) coupled membranes (10 μg/ml) were then incubated with 0.5 nM [^35S]GTPγS in the assay buffer. […] A range of concentrations of receptor agonists was used to stimulate [^35S]GTPγS binding. Both basal and non-specific binding was tested in the absence of agonist; non-specific binding determination included 10 μM unlabeled GTPγS.
Compounds were tested for function as antagonists by evaluating their potential to inhibit agonist-stimulated GTPγS binding. Radioactivity was quantified on a Packard TopCount. The following parameters were calculated:
[formula] % Inhibition=(% stimulation by 1 μM SNC80−% stimulation by 1 μM SNC80 in presence of test compound)×100/(% Stimulation by 1 μM SNC80−100)
EC50 values were calculated using GraphPad Prism.

[2] = target: T5, human delta subtype 2 opioid receptor (Homo sapiens, UniProt P41143); experiment: Human Delta Opioid Receptor Binding Assay (CHO membranes, 3H-Naltrindole); conditions: read-out: hKi δ
T5 construct: purchased Perkin Elmer RBHODM400UA; host or cells: Chinese Hamster Ovary cells (recombinant expression)
T5 sequence (P41143 whole entry): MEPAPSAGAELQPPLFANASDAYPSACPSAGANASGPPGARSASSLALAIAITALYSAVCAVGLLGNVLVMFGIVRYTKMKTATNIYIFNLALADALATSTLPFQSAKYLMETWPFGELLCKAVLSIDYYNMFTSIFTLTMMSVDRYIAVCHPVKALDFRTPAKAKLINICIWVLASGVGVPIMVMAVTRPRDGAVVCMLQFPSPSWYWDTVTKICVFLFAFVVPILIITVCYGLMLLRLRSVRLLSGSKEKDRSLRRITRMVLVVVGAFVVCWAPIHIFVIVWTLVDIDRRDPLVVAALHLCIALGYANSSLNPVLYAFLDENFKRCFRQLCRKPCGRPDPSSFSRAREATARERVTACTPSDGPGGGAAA
In short: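 Filtration binding on CHO-cell membranes expressing the human receptor, in 50 mM Tris pH 7.5 with 5 mM MgCl2, 30 min at room temperature; 3H-naltrindole diluted to 6 nM before mixing 1:1 with compound. Nonspecific binding defined with 1 μM unlabelled naltrindole; inhibition relative to no-inhibitor wells.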

T1 sequence (P33533 whole entry): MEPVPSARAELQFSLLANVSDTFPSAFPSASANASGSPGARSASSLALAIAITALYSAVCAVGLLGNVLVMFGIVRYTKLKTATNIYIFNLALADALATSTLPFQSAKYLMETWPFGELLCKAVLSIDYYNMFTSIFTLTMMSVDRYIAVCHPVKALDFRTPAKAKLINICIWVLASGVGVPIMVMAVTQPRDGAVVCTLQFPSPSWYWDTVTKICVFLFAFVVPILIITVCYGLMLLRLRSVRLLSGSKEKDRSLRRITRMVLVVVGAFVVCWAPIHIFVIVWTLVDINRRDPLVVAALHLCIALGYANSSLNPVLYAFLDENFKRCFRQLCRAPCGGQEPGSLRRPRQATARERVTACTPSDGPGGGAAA

Row | SMILES | Ki (delta opioid receptor) [nM] | Ki (mu opioid receptor) [nM] | other results
1 | COc1ccc(CN(C(=O)[C@@H](N)Cc2c(C)cccc2C)[C@@H](C)c2nc(-c3ccccc3)c[nH]2)cc1C(=O)O [Cpd 292] | 100 | 0.65 | 
2 | Cc1cc(C(N)=O)cc(C)c1C[C@H](N)C(=O)N(Cc1cccc(C(=O)O)c1)[C@@H](C)c1nc(-c2ccc(Cl)cc2)c(C)[nH]1 [Cpd 12] | 0.08 |  | Ki (human mu opioid receptor): 4.1 nM
3 | Cc1cc(O)cc(C)c1C[C@H](N)C(=O)N(Cc1nc(-c2ccccc2)c[nH]1)C(C)CN(C)C (stereo partly shown) [Cpd 167] |  | 3.15 | Ki (human mu opioid receptor): 4.2 nM; MOR GTP binding assay_v1 (% I) [1]: 17.00%; MOR GTP assay_v1 % of Basal [1]: 780.00%
4 | CC(C)N(C(=O)[C@@H](N)Cc1ccc(O)cc1)[C@H](C)c1nc(-c2ccccc2)c[nH]1 [Cpd 222] | 394 | 91.2 | Ki (human mu opioid receptor): 185 nM
5 | Cc1cc(O)cc(C)c1C[C@H](N)C(=O)N(Cc1ccccc1)[C@H](C)c1nc(-c2ccccc2)c[nH]1 [Cpd 220] | 6920 | 157 | Ki (human mu opioid receptor): 377 nM
6 | Cc1cc(C(=O)N2CCOCC2)cc(C)c1C[C@H](N)C(=O)N(C)[C@@H](C)c1nc(-c2ccccc2)c[nH]1 [Cpd 179] |  | 7120 | 
7 | COC(=O)c1cc(CN(C(=O)[C@@H](N)Cc2c(C)cc(C(N)=O)cc2C)[C@H](C)c2nc(-c3ccccc3)c[nH]2)ccc1OC [Cpd 280] | 32 | 3 | 
8 | CC(C)[C@H](NC(=O)[C@@H](N)Cc1cccc(C#N)c1)c1nc(-c2ccccc2)c[nH]1 [Cpd 186] | 515 | 5310 | 
9 | COC(=O)c1cc(CN(C(=O)[C@@H](N)Cc2ccc(C(N)=O)cc2)[C@H](C)c2nc(-c3ccccc3)c[nH]2)ccc1OC [Cpd 281] | 721 | 399 | 
10 | Cc1cc(O)cc(C)c1C[C@H](N)C(=O)N(C(C)C)[C@@H](Cc1cccc(C#N)c1)c1nc(-c2ccccc2)c[nH]1 [Cpd 122] |  |  | Ki (human mu opioid receptor): 12.8 nM; Ki [2]: 107 nM; MOR GTP binding assay_v1 (% I) [1]: 41.93%; MOR GTP assay_v1 % of Basal [1]: 278.08%
11 | Cc1cc(C(=O)N2CCOCC2)cc(C)c1C[C@H](N)C(=O)N(C)[C@H](C)c1nc(-c2ccccc2)c[nH]1 [Cpd 180] | 5220 | 1210 | 
12 | CC(C)[C@H](NC(=O)[C@@H](N)Cc1cccc(C(N)=O)c1)c1nc(-c2ccccc2)c[nH]1 [Cpd 185] | 182 | 6720 | 
13 | C[C@@H](c1nc(-c2ccccc2)c[nH]1)N(C)C(=O)[C@@H](N)Cc1ccc(S(N)(=O)=O)cc1 [Cpd 189] | 360 | 277 | 
14 | CC(C)C[C@@H](c1nc(-c2ccccc2)c[nH]1)N(C)C(=O)[C@@H](N)Cc1cccc(C(N)=O)c1 [Cpd 168] | 8870 | 5320 | 
15 | COC(=O)c1cc(CN(C(=O)[C@H](N)Cc2ccc(C(N)=O)cc2)[C@H](C)c2nc(-c3ccccc3)c[nH]2)ccc1OC [Cpd 284] | 1530 | 1030 | 
16 | COc1ccc(CN(Cc2nc(-c3ccccc3)c[nH]2)C(=O)[C@@H](N)Cc2c(C)cc(C(N)=O)cc2C)cc1C(=O)O [Cpd 6] | 1.7 |  | Ki (human mu opioid receptor): 2 nM
17 | COc1ccc(CN(C(=O)[C@@H](N)Cc2ccc(O)cc2)[C@@H](C)c2nc(-c3ccc(Cl)cc3)c(C)[nH]2)cc1C(=O)O [Cpd 293] | 3170 | 646 | 
18 | COC(=O)c1cc(CN(C(=O)[C@@H](N)Cc2ccc(O)cc2)[C@@H](C)c2nc(-c3ccccc3)c[nH]2)ccc1OC [Cpd 279] | 5.2 | 0.137 | 
19 | CC(C)[C@@H](c1nc(-c2ccccc2)c[nH]1)N(C)C(=O)[C@@H](N)Cc1ccc(O)cc1 [Cpd 171] |  | 141 | 
20 | Cc1cc(O)cc(C)c1C[C@H](N)C(=O)N[C@H](c1nc(-c2ccccc2)c[nH]1)C(C)C [Cpd 187] | 5200 | 121 | 
21 | CC(C)[C@H](NC(=O)[C@@H](N)Cc1ccc(O)cc1)c1nc(-c2ccccc2)c[nH]1 [Cpd 188] | 541 | 307 | 
22 | COc1ccc(CN(C(=O)[C@@H](N)Cc2ccc(O)cc2)[C@@H](C)c2nc(-c3ccccc3)c[nH]2)cc1C(N)=O [Cpd 297] | 44 | 0.11 | 
23 | CNC(=O)c1cc(C)c(C[C@H](N)C(=O)N(C)[C@H](C)c2nc(-c3ccccc3)c[nH]2)c(C)c1 [Cpd 184] |  | 19.5 | MOR GTP binding assay_v1 (% I) [1]: 13.00%; MOR GTP assay_v1 % of Basal [1]: 862.00%
24 | Cc1cc(O)cc(C)c1C[C@H](N)C(=O)N[C@@H](Cc1cccc(C(N)=O)c1)c1nc(-c2ccccc2)c[nH]1 [Cpd 172] |  | 150 | 
25 | COc1ccc(CN(C(=O)[C@@H](N)Cc2ccc(O)cc2)[C@@H](C)c2nc(-c3ccccc3)c[nH]2)cc1C(=O)N1CCOCC1 [Cpd 298] | 44 | 0.3 | 
26 | COc1ccc(CN(C(=O)[C@@H](N)Cc2c(C)cc(C(N)=O)cc2C)[C@H](C)c2nc(-c3ccc(Cl)cc3)c(C)[nH]2)cc1C(=O)O [Cpd 278] | 49 | 12 | 
27 | CC(C)C[C@@H](c1nc(-c2ccccc2)c[nH]1)N(C)C(=O)[C@@H](N)Cc1cccc(C#N)c1 [Cpd 169] |  | 853 | 
28 | Cc1cc(O)cc(C)c1C[C@H](N)C(=O)N[C@@H](CC(C)C)c1nc(-c2ccccc2)c[nH]1 [Cpd 176] |  | 156 | 
